PubChem BioAssay AID1963843 (Molecular Pharmacology Branch, DTP, NCI, 2024)

System: 616215-338-R-J1-PDC complex spheroid viability
Assay: Anticancer human tumor 616215-338-R-J1-PDC patient-derived colon adenocarcinoma cell line growth inhibition [POLQ]
Details: for IC50: curve of first compound; for viability, T/C: stronger effect = lower value
How it was run: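 Growth inhibition in 3D: complex spheroids (tumor PDC, HUVEC, MSC) treated with POLQ inhibitor combinations; where Cmax unknown, highest tested concentration 10 microM, except SN-38 at 1 microM.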

[1] = second compound 0.0316 µM, first compound 0.0316 µM
[2] = second compound 0.0316 µM, first compound 0.1 µM
[3] = second compound 0.0316 µM, first compound 0.316 µM
[4] = second compound 0.0316 µM, first compound 1 µM
[5] = second compound 0.0316 µM, first compound 3.16 µM
[6] = second compound 0.0316 µM, first compound 10 µM
[7] = second compound 0.1 µM, first compound 0.0316 µM
[8] = second compound 0.1 µM, first compound 0.1 µM
[9] = second compound 0.1 µM, first compound 0.316 µM
[10] = second compound 0.1 µM, first compound 1 µM
[11] = second compound 0.1 µM, first compound 3.16 µM
[12] = second compound 0.1 µM, first compound 10 µM
[13] = second compound 0.316 µM, first compound 0.0316 µM
[14] = second compound 0.316 µM, first compound 0.1 µM
[15] = second compound 0.316 µM, first compound 0.316 µM
[16] = second compound 0.316 µM, first compound 1 µM
[17] = second compound 0.316 µM, first compound 3.16 µM
[18] = second compound 0.316 µM, first compound 10 µM
[19] = second compound 1 µM, first compound 0.0316 µM
[20] = second compound 1 µM, first compound 0.1 µM
[21] = second compound 1 µM, first compound 0.316 µM
[22] = second compound 1 µM, first compound 1 µM
[23] = second compound 1 µM, first compound 3.16 µM
[24] = second compound 1 µM, first compound 10 µM
[25] = second compound 3.16 µM, first compound 0.0316 µM
[26] = second compound 3.16 µM, first compound 0.1 µM
[27] = second compound 3.16 µM, first compound 0.316 µM
[28] = second compound 3.16 µM, first compound 1 µM
[29] = second compound 3.16 µM, first compound 3.16 µM
[30] = second compound 3.16 µM, first compound 10 µM
[31] = second compound 10 µM, first compound 0.0316 µM
[32] = second compound 10 µM, first compound 0.1 µM
[33] = second compound 10 µM, first compound 0.316 µM
[34] = second compound 10 µM, first compound 1 µM
[35] = second compound 10 µM, first compound 3.16 µM
[36] = second compound 10 µM, first compound 10 µM
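Further: spheroids exposed to compounds for one week before readout.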
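Wherever viability, T/C is given: percent viability relative to DMSO vehicle wells taken as 100%.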

`O=C(c1cc(Cc2n[nH]c(=O)c3ccccc23)ccc1F)N1CCN(C(=O)C2CC2)CC1` + Nc1ccc(C#CCN(C(=O)Cc2ncc(C(F)(F)F)cc2C(F)(F)F)c2ccc(F)cc2)nn1 was tested, and the IC50 (second compound 0.0316 µM) was > 10 µM, the IC50 (second compound 0.1 µM) was > 10 µM and the IC50 (second compound 0.316 µM) was 8.94 µM. The IC50 (second compound 1 µM) was > 10 µM, the IC50 (second compound 3.16 µM) was > 10 µM and the IC50 (second compound 10 µM) was 9.49 µM. It also gave a viability, T/C [1] of 102%, a viability, T/C [2] of 99% and a viability, T/C [3] of 113%. The viability, T/C [4] was 99.9%, the viability, T/C [5] was 88.5% and the viability, T/C [6] was 55.5%. It also gave a viability, T/C [7] of 110%, a viability, T/C [8] of 94.7% and a viability, T/C [9] of 104%. The viability, T/C [10] was 94.1%, the viability, T/C [11] was 88.6% and the viability, T/C [12] was 66.9%. It also gave a viability, T/C [13] of 105%, a viability, T/C [14] of 103% and a viability, T/C [15] of 92.6%. The viability, T/C [16] was 88.3%, the viability, T/C [17] was 102% and the viability, T/C [18] was 44.8%. For the same molecule, the viability, T/C [19] was 99.8%, the viability, T/C [20] was 97.6% and the viability, T/C [21] was 94.4%. It also gave a viability, T/C [22] of 103%, a viability, T/C [23] of 80% and a viability, T/C [24] of 55%. For the same molecule, the viability, T/C [25] was 112%, the viability, T/C [26] was 107% and the viability, T/C [27] was 99.6%. It also gave a viability, T/C [28] of 93.3%, a viability, T/C [29] of 98.1% and a viability, T/C [30] of 54.1%. The viability, T/C [31] was 96.3%, the viability, T/C [32] was 88.7% and the viability, T/C [33] was 80.7%. For the same molecule, the viability, T/C [34] was 79.7%, the viability, T/C [35] was 81.3% and the viability, T/C [36] was 47.9%.
For `COc1cccc(OCCCN)c1-c1cc(Nc2cnc(C#N)cn2)n[nH]1` + COC1C(OC(N)=O)C(O)C(Oc2ccc3c(O)c(NC(=O)c4ccc(O)c(CC=C(C)C)c4)c(=O)oc3c2C)OC1(C)C, the IC50 (second compound 0.0316 µM) was > 1 µM, the IC50 (second compound 0.1 µM) was > 1 µM and the IC50 (second compound 0.316 µM) was > 1 µM. For the same molecule, the IC50 (second compound 1 µM) was > 1 µM, the IC50 (second compound 3.16 µM) was > 1 µM and the IC50 (second compound 10 µM) was 0.866 µM. It also gave a viability, T/C (second compound 0.0316 µM, first compound 0.00316 µM) of 95.7%, a viability, T/C (second compound 0.0316 µM, first compound 0.01 µM) of 109% and a viability, T/C [1] of 94.8%. The viability, T/C [2] was 76.1%, the viability, T/C [3] was 69.3% and the viability, T/C [4] was 61%. The viability, T/C (second compound 0.1 µM, first compound 0.00316 µM) was 98.6%, the viability, T/C (second compound 0.1 µM, first compound 0.01 µM) was 99.3% and the viability, T/C [7] was 97.8%. The viability, T/C [8] was 78.8%, the viability, T/C [9] was 65.1% and the viability, T/C [10] was 51.7%. The viability, T/C (second compound 0.316 µM, first compound 0.00316 µM) was 100%, the viability, T/C (second compound 0.316 µM, first compound 0.01 µM) was 106% and the viability, T/C [13] was 85.7%. For the same molecule, the viability, T/C [14] was 87.4%, the viability, T/C [15] was 68% and the viability, T/C [16] was 53.5%. It also gave a viability, T/C (second compound 1 µM, first compound 0.00316 µM) of 103%, a viability, T/C (second compound 1 µM, first compound 0.01 µM) of 101% and a viability, T/C [19] of 89.2%. For the same molecule, the viability, T/C [20] was 75.3%, the viability, T/C [21] was 67.2% and the viability, T/C [22] was 54.2%. For the same molecule, the viability, T/C (second compound 3.16 µM, first compound 0.00316 µM) was 98.8%, the viability, T/C (second compound 3.16 µM, first compound 0.01 µM) was 95.3% and the viability, T/C [25] was 86.3%. It also gave a viability, T/C [26] of 74.2%, a viability, T/C [27] of 63.3% and a viability, T/C [28] of 55.2%. The viability, T/C (second compound 10 µM, first compound 0.00316 µM) was 95.7%, the viability, T/C (second compound 10 µM, first compound 0.01 µM) was 97% and the viability, T/C [31] was 88.1%. The viability, T/C [32] was 79.8%, the viability, T/C [33] was 64.4% and the viability, T/C [34] was 47.9%.
For `COc1ccc([C@@H](O)c2cc(-c3ncnc4cc(N5CCOCC5)ccc34)c(F)cc2Cl)nn1` + COC1C(OC(N)=O)C(O)C(Oc2ccc3c(O)c(NC(=O)c4ccc(O)c(CC=C(C)C)c4)c(=O)oc3c2C)OC1(C)C, the IC50 (second compound 0.0316 µM) was > 10 µM, the IC50 (second compound 0.1 µM) was > 10 µM and the IC50 (second compound 0.316 µM) was > 10 µM. For the same molecule, the IC50 (second compound 1 µM) was > 10 µM, the IC50 (second compound 3.16 µM) was > 10 µM and the IC50 (second compound 10 µM) was > 10 µM. For the same molecule, the viability, T/C [1] was 109%, the viability, T/C [2] was 105% and the viability, T/C [3] was 110%. For the same molecule, the viability, T/C [4] was 99.4%, the viability, T/C [5] was 105% and the viability, T/C [6] was 76.1%. It also gave a viability, T/C [7] of 109%, a viability, T/C [8] of 99% and a viability, T/C [9] of 109%. For the same molecule, the viability, T/C [10] was 109%, the viability, T/C [11] was 113% and the viability, T/C [12] was 73.5%. The viability, T/C [13] was 107%, the viability, T/C [14] was 101% and the viability, T/C [15] was 108%. It also gave a viability, T/C [16] of 100%, a viability, T/C [17] of 114% and a viability, T/C [18] of 77.7%. It also gave a viability, T/C [19] of 96.7%, a viability, T/C [20] of 101% and a viability, T/C [21] of 116%. The viability, T/C [22] was 117%, the viability, T/C [23] was 110% and the viability, T/C [24] was 66.3%. For the same molecule, the viability, T/C [25] was 95.7%, the viability, T/C [26] was 104% and the viability, T/C [27] was 100%. It also gave a viability, T/C [28] of 119%, a viability, T/C [29] of 108% and a viability, T/C [30] of 69.7%. For the same molecule, the viability, T/C [31] was 104%, the viability, T/C [32] was 94.2% and the viability, T/C [33] was 111%. It also gave a viability, T/C [34] of 107%, a viability, T/C [35] of 110% and a viability, T/C [36] of 66.5%.
For `O=C(Nc1ccc(O)c(NS(=O)(=O)c2ccc(F)cc2)c1)c1ccc(-c2ccccc2)cc1` + Cc1cccc(N(C)C(=O)C2C(O)CCN2c2nc(C)cc(C(F)(F)F)c2C#N)c1, the IC50 (second compound 0.0316 µM) was > 10 µM, the IC50 (second compound 0.1 µM) was > 10 µM and the IC50 (second compound 0.316 µM) was > 10 µM. It also gave an IC50 (second compound 1 µM) of 6.74 µM, an IC50 (second compound 3.16 µM) of 8.18 µM and an IC50 (second compound 10 µM) of 7.24 µM. The viability, T/C [1] was 109%, the viability, T/C [2] was 105% and the viability, T/C [3] was 103%. For the same molecule, the viability, T/C [4] was 93.7%, the viability, T/C [5] was 101% and the viability, T/C [6] was 72.5%. It also gave a viability, T/C [7] of 109%, a viability, T/C [8] of 95.7% and a viability, T/C [9] of 108%. For the same molecule, the viability, T/C [10] was 114%, the viability, T/C [11] was 96.5% and the viability, T/C [12] was 76.1%. The viability, T/C [13] was 95.2%, the viability, T/C [14] was 117% and the viability, T/C [15] was 92.1%. The viability, T/C [16] was 108%, the viability, T/C [17] was 103% and the viability, T/C [18] was 73%. For the same molecule, the viability, T/C [19] was 98.3%, the viability, T/C [20] was 99.8% and the viability, T/C [21] was 107%. The viability, T/C [22] was 96.6%, the viability, T/C [23] was 82% and the viability, T/C [24] was 33.4%. It also gave a viability, T/C [25] of 117%, a viability, T/C [26] of 106% and a viability, T/C [27] of 95.3%. For the same molecule, the viability, T/C [28] was 88.1%, the viability, T/C [29] was 95.4% and the viability, T/C [30] was 40.5%. For the same molecule, the viability, T/C [31] was 108%, the viability, T/C [32] was 102% and the viability, T/C [33] was 91.8%. The viability, T/C [34] was 93.1%, the viability, T/C [35] was 87.2% and the viability, T/C [36] was 35.8%.
